Reference: the NIST ThermoML archive (doi:10.1016/j.fluid.2010.03.010)
Numbers after ± are expanded uncertainties.

Details: Liquid, Vibrating tube method

CCOS(=O)(=O)[O-].CCn1cc[n+](C)c1 [1-ethyl-3-methylimidazolium ethyl sulfate]
Details	mass density [kg/m3]
342.15 K, 101.33 kPa	1208.29 ± 9.7
343.15 K, 100 kPa	1207.4 ± 9.7
343.15 K, 101.33 kPa	1207.63 ± 9.7
343.15 K, 250 kPa	1207.5 ± 9.7
343.15 K, 500 kPa	1207.6 ± 9.7
343.15 K, 1010 kPa	1207.8 ± 9.7
343.15 K, 1990 kPa	1208.3 ± 9.7
343.15 K, 4990 kPa	1209.6 ± 9.7
343.15 K, 10010 kPa	1211.9 ± 9.7
343.15 K, 14990 kPa	1214.1 ± 9.7
343.15 K, 20010 kPa	1216.3 ± 9.7
343.15 K, 24990 kPa	1218.3 ± 9.8
343.15 K, 30000 kPa	1220.4 ± 9.8
343.15 K, 35010 kPa	1222.4 ± 9.8
343.15 K, 40000 kPa	1224.5 ± 9.8
343.15 K, 45000 kPa	1226.4 ± 9.8
343.15 K, 50000 kPa	1228.4 ± 9.9
343.15 K, 54990 kPa	1230.3 ± 9.9
343.15 K, 60000 kPa	1232.2 ± 9.9
344.15 K, 101.33 kPa	1206.97 ± 9.7
345.15 K, 101.33 kPa	1206.32 ± 9.7
346.15 K, 101.33 kPa	1205.66 ± 9.7
347.15 K, 101.33 kPa	1205.01 ± 9.7
348.15 K, 101.33 kPa	1204.36 ± 9.6
349.15 K, 101.33 kPa	1203.7 ± 9.6
350.15 K, 101.33 kPa	1203.05 ± 9.6
351.15 K, 101.33 kPa	1202.4 ± 9.6
352.15 K, 101.33 kPa	1201.75 ± 9.6
353.15 K, 100 kPa	1200.9 ± 9.6
353.15 K, 101.33 kPa	1201.09 ± 9.6
353.15 K, 250 kPa	1200.9 ± 9.6
353.15 K, 500 kPa	1201 ± 9.6
353.15 K, 1010 kPa	1201.3 ± 9.6
353.15 K, 2000 kPa	1201.8 ± 9.6
353.15 K, 4990 kPa	1203.1 ± 9.6
353.15 K, 10010 kPa	1205.5 ± 9.7
353.15 K, 15000 kPa	1207.6 ± 9.7
353.15 K, 20000 kPa	1209.9 ± 9.7
353.15 K, 24990 kPa	1212 ± 9.7
353.15 K, 30010 kPa	1214.2 ± 9.7
353.15 K, 34990 kPa	1216.2 ± 9.8
353.15 K, 40000 kPa	1218.3 ± 9.8
353.15 K, 45000 kPa	1220.2 ± 9.8
353.15 K, 50000 kPa	1222.3 ± 9.8
353.15 K, 54990 kPa	1224.2 ± 9.8
353.15 K, 60000 kPa	1226.1 ± 9.8
354.15 K, 101.33 kPa	1200.44 ± 9.6
355.15 K, 101.33 kPa	1199.79 ± 9.6
356.15 K, 101.33 kPa	1199.14 ± 9.6
357.15 K, 101.33 kPa	1198.49 ± 9.6
358.15 K, 101.33 kPa	1197.84 ± 9.6
359.15 K, 101.33 kPa	1197.2 ± 9.6
360.15 K, 101.33 kPa	1196.55 ± 9.6
361.15 K, 101.33 kPa	1195.9 ± 9.6
362.15 K, 101.33 kPa	1195.26 ± 9.6
363.15 K, 100 kPa	1194.3 ± 9.6
363.15 K, 101.33 kPa	1194.61 ± 9.6
363.15 K, 250 kPa	1194.4 ± 9.6
363.15 K, 500 kPa	1194.5 ± 9.6
363.15 K, 1000 kPa	1194.7 ± 9.6
363.15 K, 2000 kPa	1195.2 ± 9.6
363.15 K, 4990 kPa	1196.6 ± 9.6
363.15 K, 10010 kPa	1199 ± 9.6
363.15 K, 14990 kPa	1201.3 ± 9.6
363.15 K, 19990 kPa	1203.6 ± 9.6
363.15 K, 25000 kPa	1205.7 ± 9.7
363.15 K, 30000 kPa	1207.9 ± 9.7
363.15 K, 34990 kPa	1210 ± 9.7
363.15 K, 40000 kPa	1212.2 ± 9.7
363.15 K, 45000 kPa	1214.2 ± 9.7
363.15 K, 50000 kPa	1216.2 ± 9.8
363.15 K, 55000 kPa	1218.2 ± 9.8
363.15 K, 60000 kPa	1220.2 ± 9.8
373.15 K, 100 kPa	1187.8 ± 9.5
373.15 K, 250 kPa	1187.9 ± 9.5
373.15 K, 500 kPa	1188 ± 9.5
373.15 K, 1010 kPa	1188.2 ± 9.5
373.15 K, 2000 kPa	1188.7 ± 9.5
373.15 K, 4990 kPa	1190.2 ± 9.5
373.15 K, 10010 kPa	1192.6 ± 9.6
373.15 K, 14990 kPa	1194.9 ± 9.6
373.15 K, 20010 kPa	1197.3 ± 9.6
373.15 K, 25000 kPa	1199.5 ± 9.6
373.15 K, 30010 kPa	1201.7 ± 9.6
373.15 K, 34990 kPa	1203.9 ± 9.7
373.15 K, 40000 kPa	1206.1 ± 9.7
373.15 K, 45000 kPa	1208.1 ± 9.7
373.15 K, 50000 kPa	1210.2 ± 9.7
373.15 K, 54990 kPa	1212.3 ± 9.7
373.15 K, 60000 kPa	1214.3 ± 9.8
393.15 K, 100 kPa	1174.8 ± 9.4
393.15 K, 250 kPa	1174.9 ± 9.4
393.15 K, 500 kPa	1175 ± 9.4
393.15 K, 1010 kPa	1175.3 ± 9.4
393.15 K, 2000 kPa	1175.8 ± 9.4
393.15 K, 4990 kPa	1177.3 ± 9.4
393.15 K, 10000 kPa	1179.9 ± 9.4
393.15 K, 15000 kPa	1182.3 ± 9.5
393.15 K, 20010 kPa	1184.8 ± 9.5
393.15 K, 24990 kPa	1187.1 ± 9.5
393.15 K, 30010 kPa	1189.5 ± 9.5
393.15 K, 34990 kPa	1191.7 ± 9.6
393.15 K, 40000 kPa	1194 ± 9.6
393.15 K, 45010 kPa	1196.2 ± 9.6
393.15 K, 50000 kPa	1198.4 ± 9.6
393.15 K, 55000 kPa	1200.5 ± 9.6
393.15 K, 60000 kPa	1202.6 ± 9.7
413.15 K, 100 kPa	1161.7 ± 9.3
413.15 K, 250 kPa	1161.8 ± 9.3
413.15 K, 500 kPa	1162 ± 9.3
413.15 K, 1010 kPa	1162.2 ± 9.3
413.15 K, 2000 kPa	1162.8 ± 9.3
413.15 K, 4990 kPa	1164.4 ± 9.3
413.15 K, 10000 kPa	1167.2 ± 9.3
413.15 K, 14990 kPa	1169.7 ± 9.4
413.15 K, 20010 kPa	1172.4 ± 9.4
413.15 K, 24990 kPa	1174.8 ± 9.4
413.15 K, 30000 kPa	1177.4 ± 9.4
413.15 K, 34990 kPa	1179.7 ± 9.5
413.15 K, 40000 kPa	1182.1 ± 9.5
413.15 K, 45000 kPa	1184.4 ± 9.5
413.15 K, 50000 kPa	1186.7 ± 9.5
413.15 K, 54990 kPa	1188.9 ± 9.5
413.15 K, 60000 kPa	1191.1 ± 9.6
433.15 K, 100 kPa	1148.6 ± 9.2
433.15 K, 250 kPa	1148.7 ± 9.2
433.15 K, 500 kPa	1148.8 ± 9.2
433.15 K, 1010 kPa	1149.1 ± 9.2
433.15 K, 2000 kPa	1149.7 ± 9.2
433.15 K, 4990 kPa	1151.4 ± 9.2
433.15 K, 10010 kPa	1154.4 ± 9.2
433.15 K, 14990 kPa	1157.1 ± 9.3
433.15 K, 20010 kPa	1159.9 ± 9.3
433.15 K, 24990 kPa	1162.5 ± 9.3
433.15 K, 30010 kPa	1165.2 ± 9.3
433.15 K, 34990 kPa	1167.6 ± 9.4
433.15 K, 40000 kPa	1170.2 ± 9.4
433.15 K, 45010 kPa	1172.6 ± 9.4
433.15 K, 50000 kPa	1175.1 ± 9.4
433.15 K, 54990 kPa	1177.4 ± 9.4
433.15 K, 60000 kPa	1179.7 ± 9.5
